Consider one compound from patent US6821442B1, “Method and apparatus for control of aquatic vertebrate and invertebrate invasive species” (priority 2002, dated 2004).

In data set [1] the test system is Asian clam (Corbicula fluminea). The experiment in a line: LT50 of Asian clam exposed to supersaturated gas, standard laboratory methods (APHA 1995). It is filed as in vivo. An excerpt: Gas supersaturation (ΔP>0) with CO2, air or combustion off-gas is established and maintained for a time period shown to cause a selected mortality rate within the population of the target species. We have established LT50 values (LT50 is defined as the time to kill 50 per cent of a targeted species) for the Asian clam (Corbicula fluminea) exposed to elevated concentrations of carbon dioxide and a simulated combustion gas mixture ([…]; N2=85.7%; CO2=13.6%; SO2=0.284%). The LT50 values were established using standard laboratory methods (APHA 1995). With carbon dioxide exposure, LT50 was described by the model (R^2=0.86):
LT50 values decreased from a high of 270 min at 260 mm Hg PCO2 to a low of 90 min at 2070 mm Hg gage pressure. This later value represents a 27 fold decrease in LT50 below that established by McMahon et al (1995) at a PCO2 of 760 mm Hg (absolute pressure). Combustion gas requires longer exposure periods given a lower XCO2. The LT50 at a operating pressure of 2070 mm Hg is about 350 min. […] Lower levels of LT50 are anticipated for fish and other aquatic exotics of concern.

In the next data set the test system is Asian clams. Particulars: cited from earlier work.
In data set [2] the test system is zebra mussels. The note with it: cited from earlier work.
Data set [3] has as its system zebra mussels. Particulars: 25° C., cited from earlier work.

Molecules are shown by their SMILES. Values after ≈ are worked out from the molar mass of the structure shown. Like-named read-outs stand apart in the source and are kept apart here.

`O=C=O` [carbon dioxide]: the LT50 in data set [1] (260 mm Hg PCO2, Asian clam) is recorded as 270 min; in data set [1] (2070 mm Hg gage pressure, Asian clam), 90 min; in the data set with zebra mussels [3] (PCO2 75 torr, zebra mussels) it was 78 h. Further, the “fold decrease in LT50 below that of McMahon et al at PCO2 760 mm Hg (absolute pressure)” value in data set [1] (2070 mm Hg gage pressure) is given as 27 fold. In addition, the concentration causing toxicity in the data set on Asian clams is 500 mg/L. The “concentration inducing a narcotizing effect” value in the data set with Asian clams is 100 mg/L. Further, the 50% lethal concentration (LC50) in the data set with zebra mussels [2] (48 h, 18° C.) was 196 µg/mL (≈ 4.45 mM); in the data set on zebra mussels [2] (48 h, 22° C.), 290 µg/mL (≈ 6.59 mM); with zebra mussels [2] (96 h, 18° C.), 74 µg/mL (≈ 1.68 mM); in the data set with zebra mussels [2] (96 h, 22° C.) it was 81 µg/mL (≈ 1.84 mM). Besides, in the data set with zebra mussels [2], the “exposure period after which sub-lethal narcotizing effects (gaping response) were induced” value is reported as 4 h. For the same compound, in the data set on zebra mussels [3] (PCO2 75 torr, zebra mussels), the mortality entry is listed as “complete mortality”. Besides, the “effect on byssal threads” value in the data set on zebra mussels [3] (PCO2 of 38 torr) is “detachment of byssal threads and inhibition of byssal thread formation”.

In general, LC50 refers to the concentration lethal to half of the exposed cells or organisms.
